From patent publication US9204644B2, “Nanoparticles compositions containing polymers and anthranilic acid diamide insecticides for propagule coating” (priority 2011, dated 2015)

Test system: 2nd instar larva of Spodoptera frugiperda
Assay: Laboratory test of larval mortality on maize leaves
Format: in vivo

Compound: CNC(=O)c1cc(Cl)cc(C)c1NC(=O)c1cc(Br)nn1-c1ncccc1Cl [Compound 2, 3-bromo-N-[4-chloro-2-methyl-6-[(methylamino)carbonyl]phenyl]-1-(3-chloro-2-pyridinyl)-1H-pyrazole-5-carboxamide]
- concentration in leaf tissue needed to achieve 100% mortality within 72 h: 0.037 micrograms per g of tissue
- concentration in leaf tissue resulting in 50% mortality within 72 h: 0.033 micrograms per g of leaf tissu
